Measurements taken from patent publication US9458141B2, “Low molecular weight thyroid stimulating hormone receptor (TSHR) agonists” (The United States of America, as represented by the …, priority 2008, dated 2016).
Where two headings read alike, the source gives them in different places.

Target: T1, human TSHR (Homo sapiens, UniProt P16473)
T1 construct: expressed in transfected cells
Assay: Homogeneous Time Resolved Fluorescence (HTRF) cAMP assay, TSHR cell line
Type: cell-based
Conditions: for Maximum Activity compared to TSH: 100% activity = response of 30 mU/ml TSH, 0% = DMSO control, in %; for AC50: HTRF cAMP, TSHR cell line, 30 minute incubation; for Emax: read-out: Maximum Activity compared to TSH, 100% activity = response of 30 mU/ml TSH, 0% = DMSO control; call rule not given here

T1 sequence (P16473 21-764): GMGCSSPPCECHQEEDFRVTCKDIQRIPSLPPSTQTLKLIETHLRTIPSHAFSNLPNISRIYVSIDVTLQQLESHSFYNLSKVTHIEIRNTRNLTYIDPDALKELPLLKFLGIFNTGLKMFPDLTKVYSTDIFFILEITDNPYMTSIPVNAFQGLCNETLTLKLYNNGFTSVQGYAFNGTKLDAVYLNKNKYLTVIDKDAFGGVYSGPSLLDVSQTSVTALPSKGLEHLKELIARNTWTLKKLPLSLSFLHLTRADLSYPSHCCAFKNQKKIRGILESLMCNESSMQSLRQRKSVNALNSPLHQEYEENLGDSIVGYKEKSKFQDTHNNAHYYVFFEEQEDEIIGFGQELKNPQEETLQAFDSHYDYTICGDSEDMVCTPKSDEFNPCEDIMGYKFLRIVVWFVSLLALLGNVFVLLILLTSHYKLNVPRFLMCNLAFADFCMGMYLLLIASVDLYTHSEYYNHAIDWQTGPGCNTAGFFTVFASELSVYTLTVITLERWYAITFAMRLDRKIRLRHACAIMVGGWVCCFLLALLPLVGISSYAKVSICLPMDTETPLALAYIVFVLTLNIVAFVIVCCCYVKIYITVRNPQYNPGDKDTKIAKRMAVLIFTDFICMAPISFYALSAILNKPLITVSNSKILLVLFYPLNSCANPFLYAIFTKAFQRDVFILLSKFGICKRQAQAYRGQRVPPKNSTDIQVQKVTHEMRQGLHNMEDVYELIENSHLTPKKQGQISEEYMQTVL

Row | AC50 (read-out: AC50) [µM] | AC50 | SMILES | other results
1 | 39.8 | – | COc1ccc(C2Nc3ccccc3C(=O)N2Cc2ccc(CNC(=O)CO)cc2)cc1COc1ccc(NC(C)=O)cc1 (centres unmarked) [Structure 128] | Maximum Activity compared to TSH: 69.13
2 | 28.2 | – | O=C(c1ccccc1O)N(Cc1ccccc1)Cc1ccccc1 [Structure 129] | Maximum Activity compared to TSH: 51.77
3 | 50.1 | – | COc1ccc(CN(Cc2ccccc2)C(=O)COC(C)=O)cc1COc1ccc(NC(C)=O)cc1 [Structure 130] | Maximum Activity compared to TSH: 53.70
4 | 35.5 | – | COc1ccc(C(=O)N(Cc2ccccc2)Cc2ccccc2)c(O)c1 [Structure 131] | Maximum Activity compared to TSH: 99.01
5 | 31.6 | – | COc1ccc(C2Nc3ccccc3C(=O)N2Cc2ccncc2)cc1COc1ccc(NC(C)=O)cc1 (centres unmarked) [Structure 132] | Maximum Activity compared to TSH: 44.00
6 | 31.6 | – | O=C(c1ccccc1O)N(Cc1cccs1)Cc1cccs1 [Structure 133] | Emax: 55.3%
7 | 8.91 | – | COc1ccc(CNc2ccccc2C(=O)NCc2ccccc2)cc1COc1ccc(NC(C)=O)cc1 [Structure 134] | Maximum Activity compared to TSH: 30.50
8 | – | – | COc1ccc(CN(Cc2ccccc2)C(=O)Nc2ccccc2)cc1COc1ccc(NC(C)=O)cc1 [Structure 135] | Maximum Activity compared to TSH: 48.07
9 | 28.2 | – | COc1ccc(CN(Cc2ccccc2)C(=O)c2ccc(OC)cc2O)cc1 [Structure 136] | Maximum Activity compared to TSH: 37.00
10 | – | inactive | COc1ccc(C2NC(=O)c3ccccc3N2)cc1COc1ccc(NC(C)=O)cc1 (centres unmarked) [Structure 137] | –
11 | 20 | – | COc1ccc(C2Nc3ccccc3C(=O)N2C2CCCC2)cc1COc1ccc(NC(C)=O)cc1 (centres unmarked) [Structure 138] | Emax: 31.5%
12 | – | inactive | COc1ccc(C2Nc3ccccc3C(=O)N2Cc2ccccc2C)cc1COc1ccc(NC(C)=O)cc1 (centres unmarked) [Structure 139] | –
13 | – | inactive | COc1ccc(C2Nc3ccccc3C(=O)N2Cc2ccccc2)cc1COc1ccc(Cl)cc1 (centres unmarked) [Structure 140] | –
14 | – | inactive | COc1ccc(C2Nc3ccccc3C(=O)N2Cc2ccco2)cc1COc1c(C)cccc1C (centres unmarked) [Structure 141] | –
15 | 20 | – | O=C(c1ccccc1O)N(Cc1ccccc1)Cc1cccs1 [Structure 142] | Emax: 34%
16 | – | inactive | CC(C)c1ccc(C2C3=C(CC(c4ccco4)CC3=O)Nc3nc(C(F)(F)F)nn32)cc1 (centres unmarked) [Structure 143] | –
17 | – | inactive | CC(=O)Nc1ccc(OCc2cccc(C3Nc4ccccc4C(=O)N3Cc3ccco3)c2)cc1 (centres unmarked) [Structure 144] | –
18 | – | inactive | COc1ccc(CN(Cc2ccccc2)C(=O)CN2CCN(C)CC2)cc1COc1ccc(NC(C)=O)cc1 [Structure 145] | –
19 | – | inactive | COc1ccc(C2Nc3ccccc3C(=O)N2CCCN(C)C)cc1COc1ccc(NC(C)=O)cc1 (centres unmarked) [Structure 146] | –
20 | – | inactive | O=C1CC(c2ccco2)CC2=C1C(c1cccnc1)n1nc(C(F)(F)F)nc1N2 (centres unmarked) [Structure 147] | –
21 | – | inactive | O=C1c2ccccc2NC(c2cc(Br)c3c(c2)OCO3)N1Cc1ccco1 (centres unmarked) [Structure 148] | –
22 | – | inactive | CC(=O)Nc1cccc(OCc2cccc(C3Nc4ccccc4C(=O)N3Cc3ccco3)c2)c1 (centres unmarked) [Structure 149] | –
23 | – | inactive | COc1ccc(C2Nc3ccccc3CN2Cc2ccco2)cc1COc1cccc(NC(C)=O)c1 (centres unmarked) [Structure 150] | –
24 | – | inactive | COc1ccc(C2Nc3ccccc3C(=O)N2Cc2ccco2)cc1COc1cccc(NC(C)=O)c1 (centres unmarked) [Structure 151] | –

Row | AC50 (read-out: AC50) [µM] | AC50 | SMILES | other results
25 | – | inactive | COc1ccc(C2Nc3ccccc3C(=O)N2Cc2ccccc2)cc1COc1ccc(F)cc1 (centres unmarked) [Structure 152] | –
26 | – | inactive | Nc1ccccc1C(=O)NCc1ccco1 [Structure 153] | –
27 | – | inactive | O=C(c1ccccc1O)N(Cc1ccco1)Cc1cccs1 [Structure 154] | –
28 | 12.6 | – | COc1ccc(-c2nc3ccc(NC(C)=O)cc3c(=O)n2Cc2cccc(Cl)c2)cc1COc1ccc(NC(C)=O)cc1 [Structure 155] | Maximum Activity compared to TSH: 25.50
29 | – | inactive | COc1ccc(C2Nc3ccccc3C(=O)N2Cc2ccco2)cc1 (centres unmarked) [Structure 156] | –
30 | – | inactive | O=C1c2ccccc2NC(c2ccccc2O)N1Cc1ccccc1 (centres unmarked) [Structure 157] | –
31 | – | inactive | COc1ccc2c(c1OC)C(=O)N1c3ccccc3C(=O)N(Cc3ccco3)C21 (centres unmarked) [Structure 158] | –
32 | – | inactive | CC(=O)Nc1ccc(OCc2cccc(-c3nc4ccccc4c(=O)n3Cc3ccco3)c2)cc1 [Structure 159] | –
33 | 50.1 | – | COc1ccc(C(=O)C2C(=O)C(=O)N(Cc3ccco3)C2c2cccs2)cc1 (centres unmarked) [Structure 160] | Emax: 28%
34 | – | inactive | COc1ccc(CN(Cc2ccccc2)C(C)=O)cc1COc1ccc(NC(C)=O)cc1 [Structure 161] | –
35 | – | inactive | COc1ccc(C2Nc3ccccc3C(=O)N2Cc2ccco2)cc1COc1c(C)cccc1C (centres unmarked) [Structure 162] | –
36 | – | inactive | COc1ccc(C2Nc3ccccc3C(=O)N2Cc2ccccc2)cc1Oc1ccc(NC(C)=O)cc1 (centres unmarked) [Structure 163] | –
37 | – | inactive | COc1ccc(C2Nc3ccccc3C(=O)N2Cc2ccccc2)cc1COc1cccc(C(F)(F)F)c1 (centres unmarked) [Structure 164] | –
38 | – | inactive | CC(=O)Nc1ccc(OCc2cccc(C3Nc4ccccc4C(=O)N3Cc3ccco3)c2)cc1 (centres unmarked) [Structure 165] | –
39 | – | inactive | COc1ccc(CN(Cc2ccccc2)C(=O)c2ccc(NC(C)=O)cc2)cc1COc1ccc(NC(C)=O)cc1 [Structure 166] | –
40 | 14.1 | – | COc1ccc(C(=O)N(Cc2ccccc2)Cc2ccccc2)cc1COc1ccc(NC(C)=O)cc1 [Structure 167] | Maximum Activity compared to TSH: 24.50
41 | – | inactive | COc1ccc(C(=O)N(Cc2ccccc2)Cc2ccc(OC)c(COc3ccc(NC(C)=O)cc3)c2)c(O)c1 [Structure 168] | –
42 | 50.1 | – | COc1ccc(CN(Cc2ccccc2)C(=O)c2ccccc2O)cc1 [Structure 169] | Emax: 34%
43 | – | inactive | COc1ccc(C2Nc3ccccc3C(=O)N2Cc2ccccc2)cc1COc1ccc(C#N)cc1 (centres unmarked) [Structure 170] | –
44 | – | inactive | O=C1CC(c2ccco2)CC2=C1C(c1cccnc1)n1nc(C(F)(F)F)nc1N2 (centres unmarked) [Structure 171] | –
45 | – | inactive | COc1ccc(C2Nc3ccccc3C(=O)N2Cc2ccccc2)cc1COc1ccccc1OC (centres unmarked) [Structure 172] | –
46 | 15.8 | – | COc1ccc(-c2nc3ccccc3c(=O)n2Cc2ccccc2)cc1CNc1ccc(NC(C)=O)cc1 [Structure 173] | Emax: 30%
47 | – | inactive | O=C1CC(c2ccco2)CC2=C1C(c1ccc(O)cc1)n1nc(C(F)(F)F)nc1N2 (centres unmarked) [Structure 174] | –
48 | – | inactive | COc1ccc(C2Nc3ccccc3C(=O)N2Cc2ccc(C(C)(C)C)cc2)cc1COc1ccc(NC(C)=O)cc1 (centres unmarked) [Structure 175] | –

Row | AC50 (read-out: AC50) [µM] | AC50 | SMILES | other results
49 | 5.62 | – | CCC(=O)Nc1ccc(OCc2cc(C3Nc4ccccc4C(=O)N3Cc3ccccc3)ccc2OC)cc1 (centres unmarked) [Structure 177] | Emax: 29%
50 | – | inactive | COc1ccc(C2Nc3ccccc3C(=O)N2Cc2ccco2)cc1 (centres unmarked) [Structure 178] | –
51 | – | inactive | COc1ccc(-c2nc3ccccc3n2Cc2ccccc2)cc1COc1ccc(NC(C)=O)cc1 [Structure 179] | –
52 | – | inactive | O=C1c2ccccc2NC(c2ccccc2O)N1Cc1ccccc1 (centres unmarked) [Structure 180] | –
53 | 3.98 | – | COc1ccc(-c2nc3ccc(Cl)cc3c(=O)n2Cc2ccccc2)cc1COc1ccc(NC(C)=O)cc1 [Structure 181] | Emax: 22.5%
54 | – | inactive | COc1ccc(C2Nc3ccccc3C(=O)N2Cc2ccco2)cc1COc1c(C)cccc1C (centres unmarked) [Structure 182] | –
55 | – | inactive | O=C1CC(c2ccco2)CC2=C1C(c1ccncc1)n1nc(C(F)(F)F)nc1N2 (centres unmarked) [Structure 183] | –
56 | – | inactive | COc1ccc(C=O)cc1COc1ccc(NC(C)=O)cc1 [Structure 184] | –
57 | – | inactive | COc1ccc(C2Nc3ccccc3C(=O)N2CCCN(C)C)cc1COc1ccc(NC(C)=O)cc1 (centres unmarked) [Structure 186] | –
58 | – | inactive | COc1ccc(C2Nc3ccc(Cl)cc3C(=O)N2Cc2ccccc2)cc1COc1ccc(C(N)=O)cc1 (centres unmarked) [Structure 187] | –
59 | – | inactive | COc1ccc(C2Nc3ccccc3C(=O)N2Cc2ccco2)cc1COc1ccc([N+](=O)[O-])cc1 (centres unmarked) [Structure 188] | –
60 | 22.4 | – | COc1ccc(CN(Cc2ccccc2)C(=O)c2ccccc2O)cc1 [Structure 189] | Maximum Activity compared to TSH: 24.00
61 | – | inactive | COc1ccc(-c2nc3ccc(NC(C)=O)cc3c(=O)n2Cc2ccccc2)cc1COc1ccc(NC(C)=O)cc1 [Structure 191] | –
62 | – | inactive | O=c1c2ccccc2nc(-c2ccccc2O)n1Cc1ccccc1 [Structure 192] | –
63 | – | inactive | CC(=O)Nc1cccc(OCc2cccc(C3Nc4ccccc4C(=O)N3Cc3ccco3)c2)c1 (centres unmarked) [Structure 193] | –
64 | 31.6 | – | O=C(c1ccccc1O)N(Cc1ccccc1)Cc1ccccc1 [Structure 194] | Maximum Activity compared to TSH: 27.50
65 | – | inactive | COc1ccc(-c2nc3ccccc3c(=O)n2Cc2ccccc2)cc1OCc1ccc(NC(C)=O)cc1 [Structure 195] | –
66 | – | inactive | COc1ccc(C2Nc3ccccc3C(=O)N2Cc2ccccc2)cc1COc1ccc(C)cc1 (centres unmarked) [Structure 196] | –
67 | 2.82 | – | COc1ccc(C2Nc3ccccc3C(=O)N2Cc2ccc(C(F)(F)F)cc2)cc1COc1ccc(NC(C)=O)cc1 (centres unmarked) [Structure 197] | Emax: 17%
68 | 20 | – | COc1ccc(C2Nc3ccccc3C(=O)N2Cc2ccccc2OC)cc1COc1ccc(NC(C)=O)cc1 (centres unmarked) [Structure 198] | Emax: 18%
69 | 28.2 | – | COc1ccc(C2Nc3ccccc3C(=O)N2Cc2ccccc2)cc1COc1cccc(C)c1 (centres unmarked) [Structure 200] | Maximum Activity compared to TSH: 38.00
70 | – | inactive | COc1ccc(C2Nc3ccccc3C(=O)N2Cc2ccccc2C)cc1COc1ccc(NC(C)=O)cc1 (centres unmarked) [Structure 201] | –
